Read-outs that look alike come from different tables or passages of the source.
Assays:
[1] = for HPLC Conc./: based on free acid
Description: pH-dependent solubility of the HBI- 3808 sodium salt of Pattern 2 was studied.
pH dependent solubility of the HBI- 3808 sodium salt of Pattern 5 was studied.

[2] = Varying humidity (VH)-XRPD; type: physicochemical
Protocol: During the sorption phase, sodium salt Pattern 2 was observed between 40-60% RH. […] A mixture of sodium salt Pattern 2 and 5 was also observed at 80% RH. […] During the second desorption, from 90% RH to 40% RH, sodium salt Pattern 5 was maintained.
VH-XRPD analysis was carried out between 40-0% RH (FIG. 5L).

[3] = Stability study at 25° C./60% RH, 40° C./75% RH and 60° C. (XRPD, HPLC purity, impurity tracking); conditions: for XRPD: number = sodium salt XRPD Pattern; for RRT 0.801 / RRT 0.959 / RRT 1.000 (HBI-3808) / RRT 1.025 (Isomer of HBI-3808) / RRT 1.767 / Total Impurities / RRT 1.932: impurity tracking
Description: Stability of HBI-3808 Sodium Salt Pattern 2 was studied over 13 weeks.
Table 2F presents impurity tracking results from a 13-week stability study of HBI-3808 sodium salt of Pattern 2. […]

[4] = Hydration study in methanol/water aw 0.1, 0.5 and 0.9; type: physicochemical
Description: Hydration studies of ethanolamine salt.

[5] = Dynamic vapor sorption (DVS) analysis; type: physicochemical
Protocol: GC analysis indicated residual solvent contents of 2847 ppm methanol; and 27 ppm TBME. […] No residual methanol or TBME was detected due to signal over-lap. […] TG-DSC analysis indicated two weight losses. The first weight loss of 2.3 wt. % was observed between 20-170° C. […] In the DSC thermogram, three endothermic events were observed (FIG. 17I). […] FT-IR (FIG. 17J) and Raman spectra (FIG. 17K) were recorded for reference. […] XRPD pattern of the ethanolamine salt was retained post-DVS (FIG. 17N). […] However, at the end of the experiment the solids on the microscope slide had discolored (FIG. 17O).

[6] = 40° C./75% RH (open vial), 1 Week
[7] = 40° C./75% RH (open vial), 2 Weeks
[8] = 40° C./75% RH (open vial), 4 Weeks

CC1CCC2(C(=O)[O-])CCC3(C)C(=CCC4C5(C)CC(O)C(O)C(C)(CO)C5CCC43C)C2C1(C)O.[Na+] (stereo not shown) [HBI-3808 sodium salt of Pattern 5, sodium salt of 23-hydroxytormentic acid]
final Measured pH ([1]; FaSSGF): 9.34 | HPLC Conc./ ([1]; FaSSGF): >150.33 mg/mL | concentration ([1]; pH 1.2): < 1000 ng/mL | HPLC Conc./ ([1]; target pH 1.2 chloride buffer, start 200 mg/mL (ethanolamine salt 100 mg/mL)): <0.001 mg/mL | HPLC Conc./ ([1]; target pH 3.0 acetate buffer): <0.001 mg/mL | HPLC Conc./ ([1]; target pH 4.0 acetate buffer): <0.001 mg/mL | HPLC Conc./ ([1]; target pH 6.8 phosphate buffer): 0.25 mg/mL | HPLC Conc./ ([1]; target pH 8.0 phosphate buffer): 12.84 mg/mL | XRPD pattern / form stability over relative humidity ([2]; 0-90% RH): stable to relative humidity between 90-0% RH | XRPD pattern during desorption ([2]; 40-0% RH, 30° C.): no change in diffractogram | HPLC/ % area ([3]; 25° C./60% RH (open vial), 1 Week): 96.4 % area | XRPD ([3]; 25° C./60% RH (open vial), 1 Week, * Traces of sodium salt Pattern 2): 5 | HPLC/ % area ([3]; 25° C./60% RH (open vial), 2 Weeks): 96.7 % area | XRPD ([3]; 25° C./60% RH (open vial), 2 Weeks, * Traces of Pattern 2): 5 | HPLC/ % area ([3]; 25° C./60% RH (open vial), 4 Weeks): 96.3 % area | XRPD ([3]; 25° C./60% RH (open vial), 4 Weeks, * Traces of Pattern 2): 5 | HPLC/ % area [3, 6]: 96.7 % area | XRPD [3, 6]: 5 | HPLC/ % area [3, 7]: 97.5 % area | XRPD [3, 7]: 5 | HPLC/ % area [3, 8]: 96.6 % area | XRPD [3, 8]: 5 | HPLC/ % area ([3]; 60° C. (closed vial), 1 Week): 96.1 % area | XRPD ([3]; 60° C. (closed vial), 1 Week): 5 | HPLC/ % area ([3]; 60° C. (closed vial), 2 Weeks): 97.3 % area | XRPD ([3]; 60° C. (closed vial), 2 Weeks): 5 | HPLC/ % area ([3]; 60° C. (closed vial), 4 Weeks): 96.1 % area | XRPD ([3]; 60° C. (closed vial), 4 Weeks): 5 | change in chemical purity by HPLC over the stability study ([3]; all conditions (25° C./60% RH; 40° C./75% RH; 60° C.), 13 weeks (Pattern 5: 4 weeks)): no significant decrease in chemical purity | XRPD pattern over the stability study ([3]; all conditions, 4 weeks (Pattern 5), 13 weeks (ethanolamine salt)): Sodium salt Pattern 5 was retained | RRT 0.801 ([3]; 25° C./60% RH, 1 week): 0.37 % area | RRT 0.959 ([3]; 25° C./60% RH, 1 week): 0.14 % area | RRT 1.000 (HBI-3808) ([3]; 25° C./60% RH, 1 week): 96.39 % area | RRT 1.025 (Isomer of HBI-3808) ([3]; 25° C./60% RH, 1 week): 2.67 % area | RRT 1.767 ([3]; 25° C./60% RH, 1 week): 0.43 % area | Total Impurities ([3]; 25° C./60% RH, 1 week): 3.61 % area | RRT 0.801 ([3]; 25° C./60% RH, 2 weeks): 0.30 % area | RRT 1.000 (HBI-3808) ([3]; 25° C./60% RH, 2 weeks): 96.96 % area | RRT 1.025 (Isomer of HBI-3808) ([3]; 25° C./60% RH, 2 weeks): 2.74 % area | Total Impurities ([3]; 25° C./60% RH, 2 weeks): 3.04 % area | RRT 0.801 ([3]; 25° C./60% RH, 4 weeks): 0.26 % area | RRT 0.959 ([3]; 25° C./60% RH, 4 weeks): 0.13 % area | RRT 1.000 (HBI-3808) ([3]; 25° C./60% RH, 4 weeks): 96.33 % area | RRT 1.025 (Isomer of HBI-3808) ([3]; 25° C./60% RH, 4 weeks): 2.76 % area | RRT 1.767 ([3]; 25° C./60% RH, 4 weeks): 0.30 % area | RRT 1.932 ([3]; 25° C./60% RH, 4 weeks): 0.21 % area | Total Impurities ([3]; 25° C./60% RH, 4 weeks): 3.67 % area | RRT 0.801 ([3]; 40° C./75% RH, 1 week): 0.34 % area | RRT 0.959 ([3]; 40° C./75% RH, 1 week): 0.13 % area | RRT 1.000 (HBI-3808) ([3]; 40° C./75% RH, 1 week): 96.67 % area | RRT 1.025 (Isomer of HBI-3808) ([3]; 40° C./75% RH, 1 week): 2.52 % area | RRT 1.767 ([3]; 40° C./75% RH, 1 week): 0.34 % area | Total Impurities ([3]; 40° C./75% RH, 1 week): 3.33 % area | RRT 0.801 ([3]; 40° C./75% RH, 2 weeks): 0.37 % area | RRT 1.000 (HBI-3808) ([3]; 40° C./75% RH, 2 weeks): 97.47 % area | RRT 1.025 (Isomer of HBI-3808) ([3]; 40° C./75% RH, 2 weeks): 2.16 % area | Total Impurities ([3]; 40° C./75% RH, 2 weeks): 2.53 % area | RRT 0.801 ([3]; 40° C./75% RH, 4 weeks): 0.42 % area | RRT 0.959 ([3]; 40° C./75% RH, 4 weeks): 0.16 % area | RRT 1.000 (HBI-3808) ([3]; 40° C./75% RH, 4 weeks): 96.60 % area | RRT 1.025 (Isomer of HBI-3808) ([3]; 40° C./75% RH, 4 weeks): 2.34 % area | RRT 1.767 ([3]; 40° C./75% RH, 4 weeks): 0.25 % area | RRT 1.932 ([3]; 40° C./75% RH, 4 weeks): 0.22 % area | Total Impurities ([3]; 40° C./75% RH, 4 weeks): 3.40 % area | RRT 0.801 ([3]; 60° C., 1 week): 0.28 % area | RRT 0.959 ([3]; 60° C., 1 week): 0.15 % area | RRT 1.000 (HBI-3808) ([3]; 60° C., 1 week): 96.23 % area | RRT 1.025 (Isomer of HBI-3808) ([3]; 60° C., 1 week): 2.94 % area | RRT 1.767 ([3]; 60° C., 1 week): 0.40 % area | Total Impurities ([3]; 60° C., 1 week): 3.77 % area | RRT 0.801 ([3]; 60° C., 2 weeks): 0.38 % area | RRT 1.000 (HBI-3808) ([3]; 60° C., 2 weeks): 97.33 % area | RRT 1.025 (Isomer of HBI-3808) ([3]; 60° C., 2 weeks): 2.29 % area | Total Impurities ([3]; 60° C., 2 weeks): 2.67 % area | RRT 0.801 ([3]; 60° C., 4 weeks): 0.37 % area | RRT 0.959 ([3]; 60° C., 4 weeks): 0.19 % area | RRT 1.000 (HBI-3808) ([3]; 60° C., 4 weeks): 96.13 % area | RRT 1.025 (Isomer of HBI-3808) ([3]; 60° C., 4 weeks): 2.71 % area | RRT 1.767 ([3]; 60° C., 4 weeks): 0.36 % area | RRT 1.932 ([3]; 60° C., 4 weeks): 0.23 % area | Total Impurities ([3]; 60° C., 4 weeks): 3.87 % area | RRT 0.801 ([3]; T = 0): 0.35 % area | RRT 1.000 (HBI-3808) ([3]; T = 0): 96.83 % area | RRT 1.025 (Isomer of HBI-3808) ([3]; T = 0): 2.66 % area | RRT 1.767 ([3]; T = 0): 0.17 % area | Total Impurities ([3]; T = 0): 3.17 % area | input purity by HPLC ([3]; input material of the stability study (baseline)): 96.8 % area | XRPD of solids recovered at the end of the experiment [4]: consistent with sodium salt Pattern 2 | XRPD of recovered material post-DVS [5]: consistent with HBI-3808 sodium salt of Pattern 5 | reversibility of mass uptake/loss ([5]; Pattern 2: second DVS cycle): reversible | water (mass) uptake ([5]; at 80% RH/25° C. (Pattern 2: second DVS cycle)): 0.8 wt. %

From patent publication US20250326785A1, “SODIUM SALT AND ETHANOLAMINE SALT OF 23-HYDROXYTORMENTIC ACID” (HUYABIO International, LLC, priority 2024, published 2025)
